One block for each molecule: values may come before it.
Columns and labels:
[1] = system: A498: human renal carcinoma cells; assay: CTG assay, cytotoxic effects of the anti-B7H3 ADCs, A498; format: cell-based; conditions: growth inhibition vs day 0, 72 h incubation, B7H3-positive cells
Method: (§1) The analysis of the cytotoxic effects of the anti-B7H3 ADCs was carried out with various cell lines:
(§2) The cells were cultivated by the standard method as stated by the American Tissue Culture Collection (ATCC) for the cell lines in question.
(§3) The cells were cultivated according to the standard method using the growth media listed under C-1. […] The cells were then incubated in an incubator at 37° C. and 5% carbon dioxide. In a parallel plate, the cell vitality was determined at the start of the drug treatment (day 0) using the Cell Titer Glow (CTG) Luminescent Cell Viability Assay (Promega #G7573 and #G7571). To this end, 100 μl of the substrate were added per cell batch, the plates were then covered with aluminium foil, shaken on the plate shaker at 180 rpm for 2 minutes, allowed to stand on the laboratory bench for 8 minutes and then measured using a luminometer (Victor X2, Perkin Elmer). The substrate detects the ATP content in the living cells, generating a luminescence signal the height of which is directly proportional to the vitality of the cells. […] From the measured data, the IC50 of the growth inhibition in comparison to day 0 was calculated using the DRC (dose response curve) analysis spreadsheets with a 4-parameter fit. […]

[2] = system: MCF-7: human breast cancer cells; assay: CTG assay, cytotoxic effects of the anti-B7H3 ADCs, MCF-7; format: cell-based; conditions: MCF7, growth inhibition vs day 0, 72 h incubation, B7H3-positive cells
Method: as §1, §2, §3

[3] = system: Caki-2: human renal carcinoma cells; assay: CTG assay, cytotoxic effects of the anti-B7H3 ADCs, Caki-2; format: cell-based; conditions: growth inhibition vs day 0, 72 h incubation, B7H3-positive cells
[4] = system: Raji: human Burkitt's lymphoma cells; assay: CTG assay, cytotoxic effects of the anti-B7H3 ADCs, Raji; format: cell-based; conditions: growth inhibition vs day 0, 72 h incubation, B7H3-negative cells
Method: as §1, §2, §3

[5] = system: NCI-H292: human mucoepidermoid lung carcinoma cells; assay: MTT assay, cytotoxicity of metabolites, NCI-H292; format: cell-based; conditions: NCI-H292, 96 h incubation
Method: NCI-H292: human mucoepidermoid lung carcinoma cells, ATCC-CRL-1848, standard medium: RPMI 1640 (Biochrom; #FG1215, stab. glutamine)+10% FCS (Biochrom; #S0415).
(§4) The cells were cultivated according to the standard method using the growth media listed under C-1. The test is carried out by detaching the cells with a solution of Accutase in PBS (Biochrom AG #L2143), pelleting, resuspending in culture medium, counting and sowing into a 96-well culture plate with white bottom (Costar #3610) (NCI H292: 2500 cells/well in a total volume of 100 μl). The cells were then incubated in an incubator at 37° C. and 5% carbon dioxide. After 48 h, the medium was replaced. The metabolites in 10 μl of culture medium in concentrations from 10^−5M to 10^−13M were then pipetted to the cells (in triplicate), and the assay was then incubated in an incubator at 37° C. and 5% carbon dioxide. […] To this end, the MTT reagent was incubated with the cells for 4 h, followed by lysis of the cells overnight by addition of the detergent. The dye formed was detected at 570 nm (Infinite M1000 pro, Tecan). The measured data were used to calculate the IC50 of the growth inhibition using the DRC (dose response curve). The proliferation of cells which were not treated with test substance but were otherwise identically treated was defined as the 100% figure.

[6] = system: KPL4; assay: MTT assay, cytotoxicity of metabolites, KPL4; format: cell-based; conditions: KPL4; 96 h incubation
Method: as §4

[7] = system: Caco-2 cells; assay: Flux assay for cell permeability using Caco-2 cells; conditions: Caco-2, basal to apical, 2 hours
[8] = target: T1, human B7H3 (RnDSystems, 2318-B3-050/CF) (human, UniProt Q5ZPR3 29-461); assay: ELISA; antibody captured on anti-human IgG Fc, antigen 37 ng/ml, anti-His HRP / Amplex Red
T1 construct: Bought antigen, detected with an anti-His HRP antibody, so a His tag is implied
T1 sequence (looked up): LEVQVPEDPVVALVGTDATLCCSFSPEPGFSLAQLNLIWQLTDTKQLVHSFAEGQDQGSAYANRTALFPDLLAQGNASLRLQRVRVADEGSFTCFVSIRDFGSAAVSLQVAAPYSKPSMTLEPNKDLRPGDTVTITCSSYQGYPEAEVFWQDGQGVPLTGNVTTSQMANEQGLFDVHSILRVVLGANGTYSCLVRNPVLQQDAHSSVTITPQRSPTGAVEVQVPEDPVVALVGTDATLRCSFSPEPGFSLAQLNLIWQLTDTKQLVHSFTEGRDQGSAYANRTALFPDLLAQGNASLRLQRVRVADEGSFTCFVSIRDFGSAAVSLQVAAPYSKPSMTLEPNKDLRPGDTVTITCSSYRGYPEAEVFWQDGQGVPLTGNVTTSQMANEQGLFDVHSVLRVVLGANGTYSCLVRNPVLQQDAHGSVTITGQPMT
Method: (§5) TPP5706 was synthesized as described above. Binding of TPP5706 to human B7H3 and to human B7H2 and B7H4 was characterized using ELISAs. […] After washing once with PBS, 0.05% Tween, the plate was blocked with 100% Smart Block (Candor) for one hour at 37° C. The antibody to be tested (e.g. TPP5706 or one of its derivatives) was then attached to the plate (2 μg/ml IgG in PBS, 0.05% Tween, 10% Smart Block; 1 hour, room temperature). […] After washing three times, the plate was incubated with Amplex Red for 30 minutes and then read.

[9] = target: T2, human B7H2 (RnDSystems, 8206-B7) (human, UniProt O75144 19-258, limits assumed); assay: as above
T2 construct: Bought antigen, detected with an anti-His HRP antibody
T2 sequence (looked up): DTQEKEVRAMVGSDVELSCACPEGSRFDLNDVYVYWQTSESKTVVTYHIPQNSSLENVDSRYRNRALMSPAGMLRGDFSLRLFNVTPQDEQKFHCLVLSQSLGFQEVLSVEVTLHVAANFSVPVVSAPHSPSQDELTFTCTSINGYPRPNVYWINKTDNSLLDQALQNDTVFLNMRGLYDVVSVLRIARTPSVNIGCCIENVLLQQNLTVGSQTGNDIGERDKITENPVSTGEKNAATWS
Method: as §5

[10] = target: T3, human B7H4 (RnDSystems, 6576-B7) (human, UniProt Q7Z7D3 29-258, limits assumed); assay: as above
T3 construct: Bought antigen, detected with an anti-His HRP antibody
T3 sequence (looked up): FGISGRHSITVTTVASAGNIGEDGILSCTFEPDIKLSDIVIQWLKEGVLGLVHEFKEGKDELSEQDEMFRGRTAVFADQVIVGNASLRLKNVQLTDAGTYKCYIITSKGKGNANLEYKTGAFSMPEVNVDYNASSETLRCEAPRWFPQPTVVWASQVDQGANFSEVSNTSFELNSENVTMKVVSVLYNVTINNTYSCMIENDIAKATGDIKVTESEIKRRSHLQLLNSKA
Method: as §5

Molecule: CC(C)(C)[C@H](c1cc(-c2cc(F)ccc2F)cn1Cc1ccccc1)N(CCCN)C(=O)CO [Example M09, N-(3-Aminopropyl)-N-{(1R)-1-[1-benzyl-4-(2,5-difluorophenyl)-1H-pyrrol-2-yl]-2,2-dimethylpropyl}-2-hydroxyacetamide]
- IC50 [1]: 16.5 pM
- IC50 [2]: 15 pM
- IC50 [3]: 97.5 pM
- IC50 [4]: 15 pM

Molecule: CC(C)(C)[C@H](c1cc(-c2cc(F)ccc2F)cn1Cc1ccccc1)N(CC[C@H](N)C(=O)NC(CCC(=O)O)C(=O)O)C(=O)CO.O=C(O)C(F)(F)F (stereo in doubt) [Example M25, N-{(2S)-2-Amino-4-[{(1R)-1-[1-benzyl-4-(2,5-difluorophenyl)-1H-pyrrol-2-yl]-2,2-dimethylpropyl}(glycoloyl)amino]butanoyl}-L-glutamic acid-trifluoroacetic acid (1:1)]
- IC50 [5]: 500000 pM
- IC50 [6]: 500000 pM
- Papp (B-A) [7]: 0.81 ×10⁻⁶ cm/s

- Quotient signal (B7)/signal (buffer) [8]: 294
- Quotient signal (B7)/signal (buffer) [9]: < 1.5
- Quotient signal (B7)/signal (buffer) [10]: < 1.5
B1: TPP-5706 (antibody, human IgG1, kappa, V domains shown)
VH: QVQLQQPGAELVKPGASVKMSCKASGYTFTIYNVHWIKQTPGQGLEWMGTIFPGNGDTSYNQKFKDKATLTTDKSSKTAYMQLNSLTSEDSAVYYCARWDDGNVGFAHWGQGTLVTVSA
VL: DIQMTQSPASLSASVGETVTITCRASENINNYLTWFQQKQGKSPQLLVYHAKTLAEGVPSRFSGSGSGTQFSLKINSLQPEDFGSYYCQHHYGTPPTFGGGTKLEIKR
notes: Chimera of the murine Fv of the antibody from hybridoma PTA-4058 with the Ch1-Ch3 regions of a human IgG1; expressed as complete IgG; also called anti-B7H3 AK1B

Source: US20180185510A1, “ANTIBODY DRUG CONJUGATES OF KINESIN SPINDEL PROTEIN (KSP) INHIBITORS WITH ANTI-B7H3-ANTIBODIES” (BAYER PHARMA AKTIENGESELLSCHAFT, priority 2015, published 2018)
